From paper PMC11955804, “Histidine-rich enantiomeric peptide coacervates enhance antigen sequestration and presentation to T cells” (Chemical Science, 2025)

Legend:
[1] = tested on: BMDCs overlaid with DOBW cells; experiment: In vitro antigen presentation assay, MHC class II (BMDCs + DOBW hybridoma, IL-2 ELISA); settings: BMDCs pre-treated 1 h: Chlorpromazine 30 µM, Dynasore 50 µM, Wortmannin 10 µM, Methyl β-CD 2 mM; OVA-loaded coacervates; DOBW overlay 16 h
Experimental: To test internalization mechanisms, we utilized in vitro antigen presentation assays (Fig. 4A). Here, bone marrow-derived dendritic cells (BMDCs) are treated with coacervates loaded with the model antigen ovalbumin (OVA). […] Secretion of IL-2 in response to peptide-MHC recognition is an indirect measure of coacervate uptake and can be quantified using ELISA (enzyme-linked immunosorbent assay) (Fig. 4A). […] We next used pharmacological inhibitors of endocytic mechanisms to explore mechanisms of cell entry (Fig. 4E). BMDCs were treated with inhibitors of clathrin-mediated endocytosis (chlorpromazine, CPZ),[58] dynamin-dependent endocytosis (dynasore, Dyn),[59] macropinocytosis (wortmannin, Wort),[60] cholesterol (methyl β-CD),[61] and IPA3 the regulatory domain of PAK1 (IPA-3)[62] for one h prior to antigen presentation assays.
Uptake of coacervates by BMDCs was measured using in vitro antigen presentation assays.
BMDCs were plated in 96-well round-bottom plates (1×10^5 cells/well) and maintained at 4°C or
treated with 10 mM deoxy glucose and 10 mM sodium azide in PBS (ATP depletion) for 1 h prior
to addition of OVA-loaded coacervates. Final OVA concentration was 1 g/mL for time-
dependent measurements and 10 g/mL for comparison between enantiomers. Cells maintained at
37°C and complete RPMI media served as controls. Soluble OVA and PBS treated cells were used as controls for antigen delivery. Following treatment (2 h, 4 h, 24 h, 48 h, or 72 h), BMDCs were
washed to remove extracellular coacervates and DOBW hybridoma cells (1:5, DC: DOBW) were
overlaid for 16 h. The cells were then centrifuged at 300 × g for 5 min, and the supernatant was
collected for IL-2 quantitation by ELISA according to the manufacturer protocol (Biotechne,
#DY402). The amount of IL-2 produced under each condition was measured.
Inhibition of coacervate uptake was measured by adding the inhibitors 1 h
prior to coacervate treatment for 24 h followed by hybridoma overlay and IL-2 measurements.

[2] = tested on: BMDCs overlaid with OVA1.3 hybridoma cells; experiment: In vitro antigen presentation assay, MHC class I (BMDCs + OVA1.3 hybridoma, IL-2 ELISA); format: cell-based, mouse; settings: inhibitor 30 min before coacervates, Bortezomib 10 nM, Brefeldin A 17.8 µM, Lactacystin 50 µM
Description: parameters across two channels: eGFP and DAPI. Images were captured for each time point (2, 6, […]
deconvoluted using Gen 5 software overlaid to visualize localization. To test the effect of […]
T cell proliferation and functional cytokine production […]
at 1×10^8 cells/mL in EasySep Buffer.

[3] = Critical concentration (Ccrit) of coacervate formation; format: physicochemical; settings: 1× PBS, pH 7.4; enantiomeric variants identical
Description: (§1) Peptide synthesis and purification
(§2) The L- and D-enantiomers of (GHGLY)4, (GHGVY)4 and (GHGPY)4 peptides were purchased from GenScript and used without further modification. (GHGAY)4, (GHGFY)4, (GHGIY)4 and (GHGNY)4 were synthesized using standard Fmoc-SPPS chemistry on Rink Amide with Oxyma (Ethyl cyano(hydroxyimino) acetate) and N, N′-diisopropylcarbodiimide (DIC) as coupling agents on a Liberty Blue microwave-assisted synthesizer. Peptides were cleaved using a cocktail of trifluoroacetic acid (TFA), tri-isopropyl silane (TIS), and H2O (95:2.5:2.5) and extracted and washed in cold diethyl ether. The resulting pellet was dissolved in acetonitrile/water mixture (50:50) and frozen prior to lyophilization. Peptides were purified (~90%) using High Performance Liquid Chromatography (HPLC) on a Dionex Ultimate 3000 HPLC equipped with a diode-array detector on an Agilent Poroshell RP-C18 column (4.6 mm×150 mm), operating at a flow rate of 1 mL/min. Peaks corresponding to 220 nm were collected for MALDI -TOF mass analysis (Shimadzu MALDI-8030) using α-cyno-4-hydroxycinnamic acid matrix (Bruker Daltonics, MA).
Peptide solutions (0.25–1.5 mM) were prepared in 1×PBS at pH 7.4. Aliquots (140 µL) were pipetted into a 96-well plate and absorbance at 600 nm was measured over 24 h using a Synergy HT plate reader (Biotek, USA) at RT or 37°C with or without agitation. The pH dependence of LLPS formation was assessed in 0.1 M potassium phosphate buffer (with 150 mM NaCl) at different pH values (5.8, 6.6, 7.4, 8.0) and 1 mM peptide concentration. Similarly, 0.1 M potassium phosphate buffer (pH 7.4) with varying salt concent rations (0, 150, 250, 500, 1000 mM […]
Figure S10. Determination of Ccrit for (a) (GHGLY)4, (b) (GHGVY)4, (c) (GHGPY)4 and (d-f) their corresponding enantiomers (1 mM, 1× PBS, pH 7.4).
Table S1. Measured Ccrit values for (GHGXY)4 peptides used in this study.
(1 picture or pasted object on this page, not shown here)

[4] = Encapsulation efficiency measurement; format: physicochemical; settings: 1 mM peptide, 1 µM eGFP in PBS; centrifuged 15,000 × g 10 min; fluorescence of supernatant (λex 395 nm, λem 510 nm)
Experimental: Encapsulation efficiency measurements […]
powders to a final peptide concentration of 1 mM. Cargo concentrations in the stock solutions […]
nm and λem: 519 nm). For small molecule dyes, similar methods were used. The encapsulation efficiency was determined as reported previously 12.
Cellular uptake and antigen presentation assays […]
to addition of OVA-loaded coacervates. Final OVA concentration was 1 µg/mL for time- […]
37°C and complete RPMI media served as controls. Soluble OVA and PBS treated cells were used as controls for antigen delivery.

[5] = Turbidity assay of LLPS; format: physicochemical; settings: 1× PBS pH 7.4, absorbance at 600 nm over 24 h, plate reader
Description: as §1
as §2, with “Peaks corresponding to 220 nm were collected for MALDI -TOF mass analysis (Shimadzu MALDI-8030) using α-cyno-4-hydroxycinnamic acid matrix (Bruker Daltonics, MA).” left out
Peptide solutions (0.25–1.5 mM) were prepared in 1×PBS at pH 7.4. Aliquots (140 µL) were pipetted into a 96-well plate and absorbance at 600 nm was measured over 24 h using a Synergy HT plate reader (Biotek, USA) at RT or 37°C with or without agitation. The pH dependence of LLPS formation was assessed in 0.1 M potassium phosphate buffer (with 150 mM NaCl) at different pH values (5.8, 6.6, 7.4, 8.0) and 1 mM peptide concentration. […]
NaCl) was used to study ionic strength effects. The absorbance was further converted to turbidity using methods previously described 1 and data was plotted as relative turbidity. […]
Droplets were visualized in 1×PBS using NCI Leica DMC4500 microscope in reflection mode with differential interference contrast. […] Coacervate size was measured using 1 mM peptide solutions (1×PBS, pH 7.4) on a ZEN 3600 Zetasizer (Malvern Instruments, UK) using DLS-Zen 0040 specialized cuvettes. […]
Viscosity of the peptide solutions (1 mM or 2 mM) was tested using an ARES 2000ex rotational rheometer (TA Instruments, New Castle, DE). […] Viscosity was measured as a function

[6] = Optical microscopy of coacervate formation (LLPS); format: physicochemical
Description: NaCl) was used to study ionic strength effects. The absorbance was further converted to turbidity using methods previously described 1 and data was plotted as relative turbidity.
Optical microscopy and dynamic light scattering (DLS)
Droplets were visualized in 1×PBS using NCI Leica DMC4500 microscope in reflection mode with differential interference contrast. Images were captured with a DMC4500 camera under the control of Leica LAS X software (version 3.4.2). […]

[7] = Dynamic light scattering (DLS) droplet size; format: physicochemical; settings: 1 mM peptide, 1× PBS, pH 7.4; mean of 3 measurements with 14 scans each; identical for each pair of enantiomers
Experimental: Optical microscopy and dynamic light scattering (DLS) […]
Coacervate size was measured using 1 mM
peptide solutions (1×PBS, pH 7.4) on a ZEN 3600 Zetasizer (Malvern Instruments, UK) using
DLS-Zen 0040 specialized cuvettes. The results were reported as the means of three
measurements, with 14 scans for each measurement. […]

[8] = tested on: DCs; experiment: DQ-OVA delivery to lysosomes (fluorescence microscopy); format: cell-based, mouse; settings: DCs treated with DQ-OVA coacervates
Experimental: page 13: Flow cytometry The transfected A549 cells were washed with FACS wash buffer (FWB; 1× PBS with 10% […] Cells were washed again with FWB and then resuspended in 100 µl of PBS with eBioscience™ Fixable Viability Dye eFluor™ 506 antibody. The staining was quenched with FWB following a 20 min incubation. The cells were centrifuged, washed 2× times with FWB, and resuspended in 100 µl FWB with CD55 (DAF) Antibody (anti-human; miltenyibiotec Cat#130-126-382). After 20 min, staining was quenched, cells washed twice and resuspended in 200 µl FWB for acquisition. Single-stained cells stained with eFluor™ 506, CD55 (DAF) Antibody, were used as compensation controls. Samples were acquired using an Agilent NovoCyte 3000 flow cytometer. Data were analyzed with FlowJo version 10. […] was quantified as the percentage CD55+ cells, considering untreated cells as the negative control and Lipofectamine treated ones as the positive control. Antigen delivery to lysosomes and inhibitor effects DC 2.4 cells were cultured in RPMI-1640 (Catalog number: 11875093) medium supplemented with 10% FBS, 100 U/mL penicillin, 100 μg/mL streptomycin, and 1 mM sodium pyruvate. Cells were plated in 8-well chamber slides (5000 cells in 200 μL of media) and incubated for 24 h prior to addition of DQ-OVA loaded coacervates for 2 h, 6 h, or 24 h (final DQ-OVA concentration was 2.5 μg/mL). Cells treated with PBS or soluble OVA served as controls. Cells were then washed and fixed using 4% Paraformaldehyde (PFA) for 15 min at RT and permeabilized with 0.1% Triton X-100 for 5 min prior to nuclear staining with Hoechst stain (Catalog number: 62249, Thermo Fischer Scientific; 10 μg/mL). Cells were imaged (60×) on Lionheart FX automated microscope (BioTek Instruments, Inc.) with controlled exposure S13 page 14: parameters across two channels: eGFP and DAPI.

Compound: CN(C)CCCN1c2ccccc2Sc2ccc(Cl)cc21 [CPZ, chlorpromazine]
- effect of endocytosis inhibitor on uptake of coacervates (IL-2) [1]: did not significantly impact droplet uptake

Compound: methyl β-CD
- effect of endocytosis inhibitor on uptake of coacervates (IL-2) [1]: did not significantly impact droplet uptake

Compound: CC(C)C[C@H](NC(=O)[C@H](Cc1ccccc1)NC(=O)c1cnccn1)B(O)O [bortezomib]
- MHC class I presentation (IL-2 secretion) with MHC-I inhibitor [2]: significantly diminished

Compound: O=C(N/N=C/c1ccc(O)c(O)c1)c1cc2ccccc2cc1O [Dyn, dynasore]
- effect of endocytosis inhibitor on uptake of coacervates (IL-2) [1]: did not significantly impact droplet uptake

Compound: (GHGPY)4 [GP 20]
- critical concentration (Ccrit) of coacervate formation [3]: 1 mM
- eGFP loading efficiency [4]: ~30%
- turbidity over time (A600) [5]: no turbidity changes were detected with time
- coacervates at concentrations exceeding 250 mM NaCl ([6]; optical micrographs, 0.1 M potassium phosphate buffer pH 7.4, > 250 mM NaCl): no coacervates were detected
- coacervate formation ([6]; optical microscopy, 1× PBS, across multiple synthesis batches): Consistent coacervate formation
- droplet size (DLS) [7]: ~0.2 μm

Compound: COC[C@H]1OC(=O)c2coc3c2[C@@]1(C)C1=C(C3=O)[C@@H]2CCC(=O)[C@@]2(C)C[C@H]1OC(C)=O [wortmannin]
- effect of endocytosis inhibitor on uptake of coacervates (IL-2) [1]: most significant effect on uptake of coacervates

Compound: Cl.N [NH4Cl, reference compound]
- DQ-OVA fluorescence intensity in DCs in the presence of inhibitor [8]: reduced

Compound: CO/C1=C\C(C)=C\[C@@H](C)[C@@H](O)[C@@H](C)C/C(C)=C/C=C/[C@H](OC)[C@@H]([C@@H](C)[C@@H](O)[C@H](C)[C@@]2(O)C[C@@H](O)[C@H](C)[C@@H](C(C)C)O2)OC1=O [bafilomycin, reference compound]
- DQ-OVA fluorescence intensity in DCs in the presence of inhibitor [8]: reduced

Compound: C[C@H]1CCC/C=C/[C@@H]2C[C@H](O)C[C@H]2[C@H](O)/C=C/C(=O)O1 [brefeldin A]
- MHC class I presentation (IL-2 secretion) with MHC-I inhibitor [2]: significantly diminished

Compound: CC(=O)N[C@@H](CSC(=O)[C@]1([C@@H](O)C(C)C)NC(=O)[C@H](C)[C@@H]1O)C(=O)O [lactacystin]
- MHC class I presentation (IL-2 secretion) with MHC-I inhibitor [2]: significantly diminished
